The source of these data is US20250122207A1, “AP2 ASSOCIATED KINASE 1 INHIBITORS AND USES THEREOF” (Satellos Bioscience Inc., priority 2023, published 2025).

One experiment concerns the target AAK1 (Homo sapiens, UniProt Q2M2I8). The experiment is described as follows: pAP2M1 cell-based assay (in-cell Western). The source says: pAP2M1 Cell-Based Assay (in-Cell Western):
The plate was read on Licor Odyssey CLx imaging system (LICOR) to acquire fluorescence intensity at 700 channel and 800 channel.
Data analysis: Fluorescence intensity at 700 channel served as internal standard and 800 channel were normalized with 700 channel.

Experiment [1] concerns the target T1, AAK1 (amino acids T27-A365) (Homo sapiens, UniProt Q2M2I8).
T1 construct: against AAK1 (amino acids T27-A365); 6His (N, cleaved yes)
The experiment is described as follows: AAK1 pSENs assay. The experiment is classed as biochemical. Summed up:
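Biotinylated, tag-free AAK1 T27-A365 expressed in E. coli was held at 20 nM in enzyme solution (HEPES pH 7.5, 10 mM MgCl2, DTT, EGTA, Brij35, BSA) and preincubated with compound for 15 min at 25 °C. The reaction was started with an equal volume of substrate solution containing 30 uM AQT0759 peptide and 70 uM ATP. IC50 determined.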

Experiment [2] concerns the target T2, GAK (amino acids Q25-N335) (Homo sapiens, UniProt O14976).
T2 construct: against GAK (amino acids Q25-N335); 6His (N, cleaved yes)
T2 sequence (O14976 25-335): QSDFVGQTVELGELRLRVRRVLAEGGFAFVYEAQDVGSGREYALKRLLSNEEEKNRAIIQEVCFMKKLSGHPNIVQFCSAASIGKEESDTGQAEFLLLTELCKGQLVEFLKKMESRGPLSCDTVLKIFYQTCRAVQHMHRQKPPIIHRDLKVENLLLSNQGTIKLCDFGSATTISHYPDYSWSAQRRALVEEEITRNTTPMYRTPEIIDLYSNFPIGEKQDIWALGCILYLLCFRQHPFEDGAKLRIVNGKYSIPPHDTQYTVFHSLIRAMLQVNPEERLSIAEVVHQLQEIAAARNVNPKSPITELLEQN
The experiment is described as follows: GAK pSENs assay. The experiment is classed as biochemical. How it is done:
The recombinant proteins were independently expressed in Escherichia coli BL21(DE3) cells cultured in Luria-Bertani (LB) medium until OD600 reached 0.6-0.8, then cooled to 15° C. and supplemented with 0.5 mM isopropyl 1-thio-D-galactopyranoside (IPTG) induce protein expression 16 h. Cells were harvested and resuspended in lysis buffer (50 mM HEPES pH 7.5, 500 mM NaCl, 5 mM imidazole, 5% glycerol, 0.5 mM Tris (2-carboxyethyl) phosphine (TCEP), cOmplete Protease Inhibitor Tablet (Roche)) and lysed by microfludics high pressure homogenizer (UH-06, Union-Biotech). Proteins were purified using […] chromatography (His FF column, Bestchrom) and eluted stepwise in binding buffer with 20-300 mM imidazole. Removal of the hexahistidine tag was performed at 4° C. overnight using recombinant TEV protease and reacted with BirA to obtain the corresponding biotinylated-AAK1, BIKE or GAK proteins. Further separated in the reverse Strep column (Strep-Tactin® XT, IBA). The Biotin elution sample was collected containing untagged biotinylated protein was then purified by Ion-exchange chromatography (Mono Q 10/100 GL, Cytiva) and Size-exclusion chromatography (HiLoad 16/600 Superdex 200 pg, Cytiva). The pure protein was stored in a storage buffer 50 mM HEPES (pH 7.5), 300 mM NaCl, 5% glycerol at −80° C. Protein were characterized by SDS-PAGE, LC-MS and aSEC.
This example describes one illustrative method for determining the IC50 of the compounds of the present invention against GAK (amino acids Q25-N335).

The target in experiment [3] is T3, BIKE (amino acids S38-E345) (K320A, K321A) (Homo sapiens, UniProt Q9NSY1, K320A/K321A).
T3 construct: against BIKE (amino acids S38-E345) (K320A, K321A); 6His (N, cleaved yes)
The experiment is described as follows: BIKE pSENs assay. The experiment is classed as biochemical. Summed up:
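E. coli-expressed, biotinylated, tag-free BIKE at 20 nM in HEPES pH 7.5 buffer with 10 mM MgCl2 preincubated with compound 15 min at 25° C. Reaction started with 30 uM AQT0759 sensor peptide and 40 uM ATP (concentrations before 1:1 mixing).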

Setting [4] is: Hela cells co-transfected with AP2M1 and AAK1, 3 hr treatment, class symbols, read-out: AAK1 In-cell Western: IC50.
Where [5] appears, read: class symbols, read-out: AAK1 pSENs: EIC50.
Setting [6] is: class symbols, read-out: GAK pSENs:IC50.
The mark [7] stands for this setting: class symbols, read-out: BIKE pSENs: IC50.

Read-outs that look alike come from different tables or passages of the source.

T3 sequence (Q9NSY1 38-345 K320A/K321A): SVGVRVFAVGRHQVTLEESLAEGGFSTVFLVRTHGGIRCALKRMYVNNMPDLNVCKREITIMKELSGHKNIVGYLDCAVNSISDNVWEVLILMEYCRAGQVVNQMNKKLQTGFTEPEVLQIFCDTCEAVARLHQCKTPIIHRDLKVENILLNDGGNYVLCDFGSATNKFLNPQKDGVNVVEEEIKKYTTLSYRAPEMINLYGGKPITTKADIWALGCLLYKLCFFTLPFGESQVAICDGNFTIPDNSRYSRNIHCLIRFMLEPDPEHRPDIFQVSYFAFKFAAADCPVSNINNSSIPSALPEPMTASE
T1 sequence (Q2M2I8 27-365): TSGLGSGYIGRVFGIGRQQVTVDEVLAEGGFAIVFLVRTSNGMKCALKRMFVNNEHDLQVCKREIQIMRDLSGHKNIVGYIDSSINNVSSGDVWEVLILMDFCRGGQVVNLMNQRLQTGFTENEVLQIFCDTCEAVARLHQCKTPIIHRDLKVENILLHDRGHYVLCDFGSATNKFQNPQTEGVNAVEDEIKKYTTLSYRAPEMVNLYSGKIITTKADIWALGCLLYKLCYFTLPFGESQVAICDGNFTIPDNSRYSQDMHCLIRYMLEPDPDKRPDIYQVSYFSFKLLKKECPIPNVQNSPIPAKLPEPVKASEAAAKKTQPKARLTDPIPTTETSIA
Chain of AAK1 (Q2M2I8 whole entry): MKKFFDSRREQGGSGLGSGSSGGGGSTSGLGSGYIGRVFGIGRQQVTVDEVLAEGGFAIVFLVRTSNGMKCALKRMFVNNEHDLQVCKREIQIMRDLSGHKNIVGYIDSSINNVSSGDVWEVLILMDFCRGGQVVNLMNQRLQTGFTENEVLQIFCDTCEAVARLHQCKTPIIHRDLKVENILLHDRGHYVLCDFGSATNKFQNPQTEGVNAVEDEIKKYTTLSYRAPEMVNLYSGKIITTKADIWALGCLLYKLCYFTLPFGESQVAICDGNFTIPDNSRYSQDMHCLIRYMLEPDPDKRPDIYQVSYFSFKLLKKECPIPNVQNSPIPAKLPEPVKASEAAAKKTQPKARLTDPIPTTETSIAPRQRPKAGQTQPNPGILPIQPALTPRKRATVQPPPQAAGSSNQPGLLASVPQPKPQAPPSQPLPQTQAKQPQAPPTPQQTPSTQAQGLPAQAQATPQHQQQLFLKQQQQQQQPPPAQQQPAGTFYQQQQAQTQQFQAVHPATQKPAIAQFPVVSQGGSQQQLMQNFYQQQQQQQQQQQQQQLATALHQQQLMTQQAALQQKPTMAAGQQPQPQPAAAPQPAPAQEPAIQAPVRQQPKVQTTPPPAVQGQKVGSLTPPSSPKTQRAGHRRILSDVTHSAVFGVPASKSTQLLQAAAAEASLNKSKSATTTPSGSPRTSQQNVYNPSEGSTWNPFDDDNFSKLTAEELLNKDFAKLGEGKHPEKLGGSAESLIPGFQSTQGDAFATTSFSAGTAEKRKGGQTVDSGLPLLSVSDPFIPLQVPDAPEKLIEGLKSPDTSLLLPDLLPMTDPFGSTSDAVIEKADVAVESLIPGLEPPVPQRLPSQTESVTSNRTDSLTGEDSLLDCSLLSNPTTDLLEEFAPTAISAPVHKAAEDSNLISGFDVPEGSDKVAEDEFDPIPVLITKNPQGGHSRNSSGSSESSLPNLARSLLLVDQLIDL

For the compound `Brc1cnn2ccc(N3CCNCC3)nc12` [Compound I-103, 3-bromo-5-piperazin-1-yl-pyrazolo[1,5-a]pyrimidine], the IC50 (at AAK1; in experiment [1]; in experiment [2]; in experiment [3]) was greater than 1500 nM each time.
`CC(C)Oc1ncccc1-c1cnn2ccc(N3CCN(C(=O)O[C@]4(C)CCNC4)CC3)nc12` [Compound I-22, [(3R)-3-methylpyrrolidin-3-yl]4-[3-(2-isopropoxy-3-pyridyl)pyrazolo[1,5-a]pyrimidin-5-yl]piperazine-1-carboxylate]: the IC50 lay within 51 to 150 nM at AAK1 (setting [4]), 1 to 50 nM in experiment [1] (setting [5]), 51 to 150 nM in experiment [2] (setting [6]) and 51 to 150 nM in experiment [3] (setting [7]).
For `CC1(OC(=O)N2CCN(c3ccn4ncc(-c5cccnc5OCC5COC5)c4n3)CC2)COC1` [Compound I-20], the IC50 on AAK1 (setting [4]) is greater than 1500 nM; in experiment [1] (setting [5]), 151 to 500 nM; in experiment [2] (setting [6]) it was 501 to 1500 nM.
Regarding `C#C[C@]1(OC(=O)N2CCN(c3ccn4ncc(-c5cccnc5OC5CC5)c4n3)CC2)CCNC1` [Compound I-15, [(3R)-3-Ethynylpyrrolidin-3-yl]-4-[3-[2-(cyclopropoxy)-3-pyridyl]pyrazolo[1,5-a]pyrimidin-5-yl]piperazine-1-carboxylate], the IC50 is 51 to 150 nM on AAK1 (setting [4]), 1 to 50 nM in experiment [1] (setting [5]), 151 to 500 nM in experiment [2] (setting [6]) and 151 to 500 nM in experiment [3] (setting [7]).
For the compound `O=C(O[C@H]1CO[C@H]2OCC[C@H]21)N1CCN(c2ccn3ncc(-c4cnccn4)c3n2)CC1` [Compound I-66, [(3aS,4R,6aR)-2,3,3a,4,5,6a-hexahydrofuro[2,3-b]furan-4-yl]-4-(3-pyrazin-2-ylpyrazolo[1,5-a]pyrimidin-5-yl)piperazine-1-carboxylate], the IC50 at AAK1 (setting [4]) lay in the range of 501 to 1500 nM; in experiment [1] (setting [5]), 151 to 500 nM; in experiment [2] (setting [6]), 501 to 1500 nM.
As for `COc1ncccc1-c1cnn2ccc(N3CCN(C(=O)OC(C)C)CC3)nc12` [LP-935509], the IC50 in experiment [2] is 720 nM; in experiment [3], 33.3 nM.
For `CC(C)Oc1ncccc1-c1cnn2ccc(N3CCN(C(=O)O[C@@]4(C)CCNC4)CC3)nc12` [Compound I-21, [(3S)-3-Methylpyrrolidin-3-yl]4-[3-(2-isopropoxy-3-pyridyl)pyrazolo[1,5-a]pyrimidin-5-yl]piperazine-1-carboxylate], the IC50 is greater than 1500 nM on AAK1 (setting [4]), 51 to 150 nM in experiment [1] (setting [5]) and 501 to 1500 nM in experiment [2] (setting [6]).
The matching figures for `O=C1C[C@H](OC(=O)N2CCN(c3ccn4ncc(-c5cccnc5NC5CCC5)c4n3)CC2)CN1` [Compound I-46, [(3S)-5-oxopyrrolidin-3-yl]4-[3-[2-(cyclobutylamino)-3-pyridyl]pyrazolo [1,5-a]pyrimidin-5-yl]piperazine-1-carboxylate]: greater than 1500 nM, greater than 1500 nM and 501 to 1500 nM.
The matching figures for `C[C@@]1(OC(=O)N[C@H]2CCN(c3ccn4ncc(-c5cccnc5OC5CC5)c4n3)C2)CCNC1` [Compound I-57, (R)-3-methylpyrrolidin-3-yl ((S)-1-(3-(2-cyclopropoxypyridin-3-yl)pyrazolo[1,5-a]pyrimidin-5-yl)pyrrolidin-3-yl)carbamate]: greater than 1500 nM, 51 to 150 nM and 501 to 1500 nM.
Take `CC1(OC(=O)N2CCN(c3ccn4ncc(-c5cccnc5OC5CC5)c4n3)CC2)CCNC1` (stereo not shown) [Compound I-13-5, (3-Methylpyrrolidin-3-yl) 4-[3-[2-(cyclopropoxy)-3-pyridyl]pyrazolo[1,5-a]pyrimidin-5-yl]piperazine-1-carboxylate]: the IC50 in experiment [2] (setting [6]) is 151 to 500 nM; in experiment [3] (setting [7]), 51 to 150 nM.
`[2H]C([2H])([2H])N1C[C@@H](OC(=O)N2CCN(c3nc4c(-c5cc(OC)cnc5OC5CC5)cnn4cc3F)CC2)CC1=O` [Compound I-117, [(3S)-5-oxo-1-(trideuteriomethyl)pyrrolidin-3-yl]4-[3-[2-(cyclopropoxy)-5-methoxy-3-pyridyl]-6-fluoro-pyrazolo[1,5-a]pyrimidin-5-yl]piperazine-1-carboxylate]: the figures for the IC50 in experiment [1] (setting [5]), in experiment [2] (setting [6]) and in experiment [3] (setting [7]) were 1 to 50 nM, 501 to 1500 nM and 1 to 50 nM, respectively.
